Data set [1] can be described thus: Bendamustine chemical stability in formulations with amphiphilic anionic agents and phosphate buffer (HPLC, first order kinetics). The class given is physicochemical. The note with it: 0.6 mg/mL bendamustine, 1% (w/v) aqueous amphiphilic anionic agent, 6 mM phosphate buffer pH 7.2, 25° C.; read-out: decomposition half time (T½) of bendamustine. On the procedure: Formulations were prepared by dissolving bendamustine hydrochloride in pre-equilibrated 1% (w/v) aqueous solution of amphiphilic anionic agent containing 6 mM phosphate buffer, pH 7.2. The final concentration of bendamustine was 0.6 mg/mL. The formulations were incubated at 25° C., and were periodically analyzed by HPLC as follows. 10 μL samples were separated using Waters SymmetryShield RP-18 3.5 μm column (4.6×50 mm) at the flow of 1.5 mL/min of acetonitrile-water gradient containing 0.1% TFA. Peak detection has been performed with means of UV absorption detection at 260 nm. The area of the peak of Bendamustine was used to evaluate the rate of drug decomposition in the first order kinetics model.

For data set [2] the following is noted: 23° C.; cited from earlier work.

Structures can show the parent of a compound that is named as a salt.

In the case of `Cn1c(CCCC(=O)O)nc2cc(N(CCCl)CCCl)ccc21` [Control (phosphate buffer), bendamustine hydrochloride], the half-life at 0.6 mg/mL in data set [1] was 44 min.
As to `Cn1c(CCCC(=O)O)nc2cc(N(CCCl)CCCl)ccc21` [bendamustine hydrochloride], in data set [2], the “time for which stable in saline solution” value is 9 h.

The values are drawn from US8389558B2, “Bendamustine amphiphilic anionic compositions” (Supratek Pharma Inc., priority 2009, dated 2013).
